Measurements taken from patent publication US7968294B2, “SLIT2 underexpression in metastatic prostate cancer” (The Regents of the University of Michigan, priority 2008, dated 2011).
“Also recorded” adds a separate entry of the source.

System: SLIT2 expression in prostate cancer cell lines
Experiment: QRT-PCR analysis of SLIT2 transcript after compound treatment
Assay type: cell-based, human
Conditions: normalized to GAPDH housekeeping gene, FIG. 4c-e, DU145 prostate cancer cell lines, 5 uM SAHA time-course in panel d

Row | Compound | SLIT2 expression (transcript level)
1 | Nc1nccc2c1ncn2C1C=C(CO)C(O)C1O (centres unmarked) [DZNep] | Marked up-regulation
2 | O=C(CCCCCCC(=O)Nc1ccccc1)NO [SAHA] | restore the expression level of SLIT2; also recorded: up-regulated
